Laboratory results published in US5298503A, “N-(isoquinolin-5-ylsulphonyl) azacycloalkanes” (Adir et Compagnie, priority 1991, dated 1994).
Structures can show the parent of a compound that is named as a salt.

Key:
rat aortas = test: Anti-vasoconstrictive activity in physiological medium: contraction of rat aortas induced by potassium depolarisation; design: species or system WISTAR rats; settings: 0.25 h, hyperpotassic medium (80 mM KCl, 37 mM NaCl), cumulative concentrations every 15 minutes, 37° C., read-out: Concentration inhibiting by 50% (IC50) the contraction of rat aortas induced by potassium depolarisation
Description: (§1) The studies are carried out on rings, having a length of 3 mm, of aortas removed from WISTAR rats (325-375 g) which have been anaesthetised with sodium pentobarbital (30 mg/kg i.p.); or of aortas removed from New Zealand rabbits (1.8-2 kg) which have likewise been anaesthetised with sodium pentobarbital (30 mg/kg i.p.).
(§2) The vascular rings are immersed in a physiological solution, normal or calcium-free (+0.2 mM of EGTA chelator), which is kept at a temperature of 37° C. and aerated with a mixture of 95% O2 +5% CO2. The rings are connected to a STATHAM (UC2-GOULD) tension sensor. The optimum tensions for each vessel are applied and a stabilisation period of 90 minutes for the specimens is observed.
Table (T1) summarises the IC50s obtained with the compounds of the Examples representing the compounds of the invention, with regard to the contraction of rat aortas induced by a hyperpotassic medium.

rabbit aortas = test: Anti-vasoconstrictive activity in calcium-free medium: contraction of rabbit aortas induced by noradrenaline; design: species or system New Zealand rabbits; settings: Oryctolagus cuniculus, 0.5 h, 30 minutes incubation, noradrenaline 10^-6 M, calcium-free (+0.2 mM EGTA); for inhibition at 1 µM: 10^-6 M compound; for inhibition at 0.1 µM: 10^-7 M compound
Description: as §1, §2
The inhibitory effect of a concentration of the compounds of the invention incubated for 30 minutes, with regard to vascular contraction induced by nonadrenaline (10^-6 M), is tested.

[1] = test system: left auricle of guinea-pigs; test: Effect on the toxic effects of ouabain on the left auricle of guinea-pigs; settings: compound 10^-5 M, ouabain 10^-6 M; for % contracture: percentage of the initial contraction developed
Description: The left auricles are removed from guinea-pigs (350-450 g) which have been anaesthetised with sodium pentobarbital (30 mg/kg). The auricles are attached to a STATHAM (UC2-GOULD) tension sensor and the initial tension applied is 0.5 grammes. The auricles are stimulated electrically at 1 Hz by means of platinum electrodes.
Toxic effect is achieved by the addition of ouabain (10^-6 M). The test compounds are added 15 minutes prior to the addition of the toxic agent.

isolated rat's heart = test: Protective effect on an isolated rat's heart subjected to hypoxia-reoxygenation; design: species or system WISTAR rats; settings: compound 8·10^-7 M, solvent H2O; for % PVG at 30 min DE REOXYGENATION: 30 min reoxygenation after 60 min hypoxia
Description: The heart is removed from WISTAR rats (325-375 g). The heart is perfused rapidly according to the technique of LANGENDORFF at a constant pressure of 76 mmHg and is stimulated electrically at 5 Hz.
The heart is subjected to hypoxia for 60 minutes, which is effected by the administration of a gaseous mixture of 95% N2 +5% CO2 during that period, and is followed by reoxygenation for 30 minutes.
The test compounds are incubated for 15 minutes prior to and for the duration of the hypoxia.
The isovolumetric contractions are recorded by means of a polyethylene balloon connected to a pressure sensor (P23-GOULD) introduced into the left ventricle and inflated so as to obtain a diastolic pressure of between 5 and 10 mm of mercury.

Structure (SMILES)	IC50 (rat aortas)	inhibition at 1 µM (rabbit aortas)	% contraction ([1]; 10 min, solvent DMSO)	% contracture ([1]; 15 min, solvent DMSO)	% contraction ([1]; 30 min, solvent DMSO)	% contracture ([1]; 30 min, solvent DMSO)	% contraction ([1]; 60 min, solvent DMSO)	% contracture ([1]; 60 min, solvent DMSO)	inhibition at 0.1 µM (rabbit aortas)	% contraction ([1]; 10 min, solvent H2O)	% contracture ([1]; 15 min, solvent H2O)	% contraction ([1]; 30 min, solvent H2O)	% contracture ([1]; 30 min, solvent H2O)	% contraction ([1]; 60 min, solvent H2O)	% contracture ([1]; 60 min, solvent H2O)	Contracture amplitude at 15 min reoxygenation (isolated rat's heart)	% PVG at 30 min DE REOXYGENATION (isolated rat's heart)	Contracture amplitude at 30 min reoxygenation (isolated rat's heart)
CN(CCCCOc1ccc(F)cc1)C1CCN(S(=O)(=O)c2cccc3cnccc23)CC1 [Example 1, Fumarate of 1-(isoquinolin-5-ylsulphonyl)-4-{N-methyl-N-[4-(p-fluorophenoxy)butyl]amino}piperidine]	9.2 µM	62%	254.7 ± 22%	0%	260.6 ± 29%	0%	253.6 ± 26%	4 ± 4%	–	–	–	–	–	–	–	–	–	–
CN(CCCC(=O)c1ccc(F)cc1)C1CCN(S(=O)(=O)c2cccc3cnccc23)CC1 [Example 2, Dihydrochloride of 1-(isoquinolin-5-ylsulphonyl)-4-{N-methyl-N-[4-oxo-4-(p-fluorophenyl)butyl]amino}piperidine]	3.3 µM	86%	–	–	–	–	–	–	50%	184.0 ± 17.3%	1.4 ± 1.4%	138.8 ± 34.9%	10.5 ± 4.7%	112.2 ± 31.0%	33.5 ± 16.4%	5.5 ± 4.3 mmHg	95.0 ± 1.9%	0.5 ± 0.5 mmHg
CN(CCCOc1ccc(F)cc1)CC1CCN(S(=O)(=O)c2cccc3cnccc23)CC1 [Example 3, Fumarate of 1-(isoquinolin-5-ylsulphonyl)-4-{{N-methyl-N-[3-(p-fluorophenoxy)propyl]amino}methyl}piperidine]	1.5 µM	82%	–	–	–	–	–	–	43%	183.3 ± 20.7%	0.9 ± 0.9%	155.4 ± 15.0%	7.7 ± 1.5%	130.7 ± 34.5%	21.8 ± 6.2%	9.6 ± 2.4 mmHg	85.4 ± 5.8%	1.6 ± 1.0 mmHg
CN(CCCCCOc1ccc(F)cc1)C1CCN(S(=O)(=O)c2cccc3cnccc23)CC1 [Example 4, Fumarate of 1-(isoquinolin-5-ylsulphonyl)-4 {N-methyl N-[5-(p-fluorophenoxy)pentyl]amino}piperidine]	–	–	213.9 ± 22%	0%	208.6 ± 22%	0%	211.1 ± 30%	0%	–	–	–	–	–	–	–	–	–	–
CN(CCCC(=O)c1ccc(F)cc1)CC1CCN(S(=O)(=O)c2cccc3cnccc23)CC1 [Example 5, Dihydrochloride of 1-(isoquinolin-5-ylsulphonyl)-4-{N-methyl-N-[4-(p-fluorophenyl)-4-oxobutyl]aminomethyl}piperidine]	–	–	–	–	–	–	–	–	–	206.1 ± 21%	0%	186.1 ± 21.2%	2.8 ± 2.1%	141.3 ± 25.3%	16.5 ± 9.5%	–	–	–
